Two molecules from patent publication US20220241229A1, “Methods and Compositions for Altering Senescence Associated Secretory Phenotype” (BUCK INSTITUTE FOR RESEARCH ON AGING, priority 2019, published 2022) can be followed below.

Each structure is given as a SMILES string. “Also recorded” adds a separate entry of the source. Where two headings read alike, the source gives them in different places.

Data set [1] deals with inflammatory cytokines and chemokines. The experiment in a line: Inflammatory cytokines and chemokines in serum (multiplex bead array). The class given is in vivo, mice. Particulars: for Levels of 30 inflammatory cytokines and chemokines: aged female mice (29 month old) vs. aged control and young. The method, then: The samples were measured for soluble cytokines and chemokines in serum using multiplex bead array technology (MD31).

The test system of data set [2] is C57BL6/J mice. The settings on record: treated group vs. control. How it is done: Metabolism was measured applying indirect calorimetry. Promethion metabolic cage system-Sable Systems International was used. The system is equipped with GA-3 small mammal gas analyzers for measurements of O2 (consumption) and CO2 (production). Energy expenditure, food intake, water consumption, body weight, physical activity and volunteer exercise were simultaneously recorded over 4 consecutive days (96 hours). Mice were housed individually in metabolic cages and accustomed to their environment a day before the start of recording. Data were analyzed using Sable System Expedata-P Data Analysis Software. Subsequently, CalR software, a free web tool was used for analysis of experiments using indirect calorimetry, to analyze the raw data, generate some plots and run statistical analysis.

Data set [3] relates to C57BL6/J mice. Particulars: for Incidence and severity of aging phenotypes / morbidity (total frailty score): female and male, Cohort-1, 2% w/w diet from 18 months; for Age-related changes in female coat color / hair discoloration: female mice; for Severity of individual frailty phenotypes: grimace, poor coat condition, gait disorder. The text has this:
For the subjective properties of the assessments, all measurements were completely blinded. These assessments indicate age-associated deterioration of health and include evaluation of the animal musculoskeletal system, the vestibulocochlear/auditory systems, the ocular and nasal systems, the digestive system, the urogenital system, the respiratory system, signs of discomfort, body weight and body surface temperature. 0 is assigned if no sign of frailty is observed and the animal is healthy for that phenotype. A moderate phenotype and a severe phenotype is scored 0.5 and 1 respectively. Loss of temperature and weight were scored using standard deviation for the study (Table 2). All the phenotypes were scored as described before by Whitehead, J. C., et al., except for temperature and weight. Temperature and weights scoring: Briefly, for weight and temperature, the new scaling scores were used; Average and standard deviations (STDEV) were calculated sex specifically using our own baseline data sets (data collected before the start of the treatment mice at 18th month age). A decrease in temperature or weight (FIG. 3B, and FIG. 3D) within one STDEV is scored as a (0), a decrease bigger than one STDEV but smaller than 2 STDEV will be scored as a (0.5) and any decrease more than 2 STDEV is scored as a (1).
(§1) Python Software was used to extract all the health span data and create files compatible with R software for analysis. Data were analyzed using R, GraphPad Prism 7 and OASIS 2 software. Log-rank (Mantel-Cox) tests were used to analyze Kaplan-Meier curves, and a fisher's exact test was performed for maximum lifespan analysis (at 90% survival). […] Two-way analysis of variance (ANOVA) with Bonferroni post hoc correction was used for analysis between morbidity curves. The area under curve (AUC) of […] graphs were measured baselining at 18 months of age. The changes in AUC were used to calculate the percent compression of morbidity.
In order to assess healthspan, measurements were applied that are based on a clinically relevant frailty index. The frailty index (FI) consists of 31 phenotypes that are indicators of age-associated health deterioration, with each phenotype scored on a 0, 0.5 or 1 scale, based on its severity. Body weight and surface temperature were collected and converted to the same scoring scales (Table 2). All scorings were conducted in a blinded manner.
The 31-metrics share many characteristics of the human frailty indices and has been reported to progress similarly with aging in mice and humans. Measurements were repeated approximately every eight weeks, providing us with eight and seven sets of data respectively for male and female groups. To establish a baseline clinical assessment, a dataset was collected right before the start of the treatment at 18th months (FIG. 4A-FIG. 4D).
Since the age for onset of age-related phenotypes can be quite heterogeneous in mammals, frailty datasets were plotted not only as a function of chronological time, but also in proportion to the lifespan of each mouse by binning scores within ten percentile (e.g. scores collected between 60% and 70% of the animals' lifespans were binned and plotted at 65%), (FIG. 9A-FIG. 9B). This further aligns assessments with respect to the biologic age of the animal.

In data set [4] the test system is senescence-associated secretory phenotype (SASP) genes. The experiment in a line: qRT-PCR of SASP genes in irradiated IMR-90 fibroblasts. Type of data set: cell-based. Particulars: 10 Gy ionizing radiation; 1 mM for 10 days.
Procedure: For damage-induced senescence, cells were irradiated with doses of either 0 or 10 Gy of ionizing radiation (IR). Cells were concurrently treated with PBS (control) or 1 mM AKG for 10 days, changing media every 2 days. All assays were performed 10 days post irradiation.
RNA quality and quantity were assessed using NanoDrop™ 1000 spectrophotometer measures (Thermo Scientific). Total cDNAs were synthesized from 500 ng of RNA using random primers and iScript RT reagents following the manufacturer's protocol Superscript II (Invitrogen, Carlsbad, USA). Gene expression was measured from cDNA using the Roche Universal Probe Library system (Indianapolis, Ind., USA). All values were normalized to beta-actin.
Data set [5] can be described thus: Body weight and food consumption. Type of data set: in vivo, mice. The source says: (§2) The principle endpoint of health span and lifespan study was natural death or mice found dead at daily inspection or age at euthanasia (for mice deemed unlikely to survive for next 48 hr and are in enormous discomfort). The criteria for euthanasia were based on an independent assessment by a veterinarian, according to AAALAC guidelines and only where the condition of the animal was considered. Severe lethargy, rapid weight loss (over two weeks>20%), severe distended abdomen and body condition score with signs of pain (grimace), inability to move despite the stimuli, severe ulcer or bleeding tumor, sever temperature loss with abnormal breathing rate. Animal found dead or euthanized was necropsied for pathology score. No invasive measurements were performed on this population, n=180 animals (two cohorts of 90 animals). A sacrificed group were purchased at 14 months of age, baselined and grouped the following week. […] Animals were sacrificed and tissues were collected after 3 months of treatment. Food intake and body weight were measured on a biweekly and bimonthly basis for the duration of the study.
Metabolism was measured applying indirect calorimetry. Promethion metabolic cage system-Sable Systems International was used.

The test system of data set [6] is IMR-90 fibroblasts. The data set can be described thus: Senescence formation in irradiated IMR-90 fibroblasts (SA-β-gal, EdU). The class given is cell-based. The settings on record: 10 Gy ionizing radiation; 1 mM for 10 days.
Procedure: IMR-90 fetal lung fibroblasts were obtained from ATCC and were cultured at 37° C. in 3% O2 and 5% CO2. Dulbecco's modified Eagle's media (DMEM) supplemented with 10% fetal bovine serum and streptomycin/penicillin were used. Media was changed every 2 days during the experiment. For damage-induced senescence, cells were irradiated with doses of either 0 or 10 Gy of ionizing radiation (IR). Cells were concurrently treated with PBS (control) or 1 mM AKG for 10 days, changing media every 2 days. All assays were performed 10 days post irradiation.
Cells were stained for the senescence-associated 3-gal (SA-3-gal) marker as described. Non-senescent cells (having undergone fewer than 35 population doublings) were made quiescent by washing with PBS and incubating in DMEM containing 0.2% serum for 4 day. Cultures that had >80% SA-3-gal positive cells and ≤4% EdU positive cells were considered senescent.
Data set [7] has as its system C57BL6/J mice. The settings on record: Cohort-1, 2% w/w AKG diet from 18 months of age.
Text: as §2, §1

Setting [8] is: aged mice (29 months old) vs. young and aged control.

For the molecule `O=C([O-])CCC(=O)C(=O)[O-].[Ca+2]` [CaAKG, Calcium alpha-ketoglutarate], the “Levels of 30 inflammatory cytokines and chemokines” value in data set [1] is given as “largely refractory to these changes”. Besides, the “Level of IL-3” value in data set [1] (setting [8]) was “significant changes”. In data set [2], the “Level of carbon dioxide production” value was “significantly lower”, the “Level of energy expenditure” value is “significantly lower” and the “Level of oxygen consumption” value is on record as “significantly lower”. Also, in data set [3], the “Incidence and severity of aging phenotypes / morbidity (total frailty score)” value was “decreases incidence and severity of different aging phenotypes and postpones morbidity”; the “Age-related changes in female coat color / hair discoloration” value is reported as “protection from age-related changes in female coat color was particularly prominent”. Moreover, the “Total frailty score, health improvement vs. control” value in data set [3] (female, P<0.001, P<0.05) was “significant improvements after 9 months of treatment and again at 11 months post treatment”. For the same molecule, in data set [3] (females and males close to median life), the Gait result was “Gait improvement”. In addition, the “Severity of individual frailty phenotypes” value in data set [3] (females: piloerection, alopecia, loss of fur color, grip strength loss, rectal prolapse, body weight loss) is “significantly decreased”. Besides, the “Total frailty score, health improvement vs. control” value in data set [3] (male, persisted until last measurement at 33 months of age, P<0.01, P<0.05) was “significant health improvement after 11 months”. Also, the “Severity of individual frailty phenotypes” value in data set [3] (males: grip strength loss, vestibular disturbance, loss of menace reflex, hearing loss, eye discharge, poor body condition, tail stiffening, abnormal breathing rate) is listed as “significantly decreased the severity of multiple aging phenotypes”.
For `O=C(O)CCC(=O)C(=O)O` [AKG, 2-oxopentanedioic acid], the “Range of inflammatory cytokines (proinflammatory SASP)” value in data set [4] was “lowers the proinflammatory SASP”. In data set [5] (male mice, second cohort, P value<0.001), the “Body weight preservation (age-related weight loss)” value was “preserves body weight; also recorded: better body weight preservation”. Besides, in data set [5] (measured for 3 consecutive days at 19, 23 and 28 months, AKG fed vs. control), the Food consumption result is “no significance change”. Also, the “Levels of 30 inflammatory cytokines and chemokines” value in data set [1] was “general trend of reduction”. In data set [1] (setting [8]), the “Level of IL-3” value is “do not show an increase”, the “Level of IL-7” value is listed as “do not show an increase”, the “Level of MIP-1β” value is listed as “do not show an increase” and the “Level of TNFα” value is listed as “do not show an increase”. Moreover, the “Senescence formation / senescence growth arrest” value in data set [6] is “without preventing the senescence growth arrest”. Besides, in data set [7] (female), the “Age (days) at 100%” value was determined as 1116 days. In addition, the “Age (days) at 100%” value in data set [7] (male & female) is reported as 1173 days. Also, the “Age (days) at 100%” value in data set [7] (male) was 1173 days. Besides, the “Compression of morbidity (proportion of life frail)” value in data set [3] (both sexes, total frailty scores vs. percentage of lifespan) is given as “compresses the morbidity risk into fewer days of life; also recorded: decreases the proportion of life in which the animal is frail”. Moreover, in data set [3], the “Incidence and severity of aging phenotypes / morbidity (total frailty score)” value is “extends healthspan and alleviates age-associated frailty”; the “Age-related changes in female coat color / hair discoloration” value is listed as “prevents age-associated hair discoloration”.
